Molecules are shown by their SMILES. pIC50: −log10 of the molar value.

Test [1] deals with Cyclin-dependent kinase 12 (Homo sapiens) (UniProt Q9NYV4). The test is described as follows: Binding affinity to CDK12 in human Jurkat cells assessed as target occupancy level incubated for 2 hrs by measuring Bio-THZ531 bound protein level by spectrophotometry based plate based target engagement assay. It is filed as cell-based.
Test [2] concerns the target T1, Cyclin-dependent kinase 7 (Homo sapiens, UniProt P50613). Briefly: Binding affinity to CDK7 in human Jurkat cells assessed as target occupancy level incubated for 2 hrs by measuring Bio-THZ531 bound protein level by spectrophotometry based plate based target engagement assay. It counts as cell-based.
The target in test [3] is T1, Cyclin-dependent kinase 7. The test is described as follows: Inhibition of CDK7 (unknown origin) assessed as reduction in ATP-dependent phosphorylation of ULight-myelin basic protein substrate peptide incubated for 60 mins by LANCE TR-FRET assay.

T1 sequence (P50613 whole entry): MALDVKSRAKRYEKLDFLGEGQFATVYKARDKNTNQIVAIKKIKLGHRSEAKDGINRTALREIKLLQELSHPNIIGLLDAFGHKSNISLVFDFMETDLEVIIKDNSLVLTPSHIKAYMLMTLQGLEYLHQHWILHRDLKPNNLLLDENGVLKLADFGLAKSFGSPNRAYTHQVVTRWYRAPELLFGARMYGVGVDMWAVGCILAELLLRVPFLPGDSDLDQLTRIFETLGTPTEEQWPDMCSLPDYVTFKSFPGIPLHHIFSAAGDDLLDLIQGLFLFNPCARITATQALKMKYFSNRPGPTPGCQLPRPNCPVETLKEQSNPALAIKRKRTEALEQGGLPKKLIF
Chain of Cyclin-dependent kinase 12 (Homo sapiens) (Q9NYV4 whole entry, looked up): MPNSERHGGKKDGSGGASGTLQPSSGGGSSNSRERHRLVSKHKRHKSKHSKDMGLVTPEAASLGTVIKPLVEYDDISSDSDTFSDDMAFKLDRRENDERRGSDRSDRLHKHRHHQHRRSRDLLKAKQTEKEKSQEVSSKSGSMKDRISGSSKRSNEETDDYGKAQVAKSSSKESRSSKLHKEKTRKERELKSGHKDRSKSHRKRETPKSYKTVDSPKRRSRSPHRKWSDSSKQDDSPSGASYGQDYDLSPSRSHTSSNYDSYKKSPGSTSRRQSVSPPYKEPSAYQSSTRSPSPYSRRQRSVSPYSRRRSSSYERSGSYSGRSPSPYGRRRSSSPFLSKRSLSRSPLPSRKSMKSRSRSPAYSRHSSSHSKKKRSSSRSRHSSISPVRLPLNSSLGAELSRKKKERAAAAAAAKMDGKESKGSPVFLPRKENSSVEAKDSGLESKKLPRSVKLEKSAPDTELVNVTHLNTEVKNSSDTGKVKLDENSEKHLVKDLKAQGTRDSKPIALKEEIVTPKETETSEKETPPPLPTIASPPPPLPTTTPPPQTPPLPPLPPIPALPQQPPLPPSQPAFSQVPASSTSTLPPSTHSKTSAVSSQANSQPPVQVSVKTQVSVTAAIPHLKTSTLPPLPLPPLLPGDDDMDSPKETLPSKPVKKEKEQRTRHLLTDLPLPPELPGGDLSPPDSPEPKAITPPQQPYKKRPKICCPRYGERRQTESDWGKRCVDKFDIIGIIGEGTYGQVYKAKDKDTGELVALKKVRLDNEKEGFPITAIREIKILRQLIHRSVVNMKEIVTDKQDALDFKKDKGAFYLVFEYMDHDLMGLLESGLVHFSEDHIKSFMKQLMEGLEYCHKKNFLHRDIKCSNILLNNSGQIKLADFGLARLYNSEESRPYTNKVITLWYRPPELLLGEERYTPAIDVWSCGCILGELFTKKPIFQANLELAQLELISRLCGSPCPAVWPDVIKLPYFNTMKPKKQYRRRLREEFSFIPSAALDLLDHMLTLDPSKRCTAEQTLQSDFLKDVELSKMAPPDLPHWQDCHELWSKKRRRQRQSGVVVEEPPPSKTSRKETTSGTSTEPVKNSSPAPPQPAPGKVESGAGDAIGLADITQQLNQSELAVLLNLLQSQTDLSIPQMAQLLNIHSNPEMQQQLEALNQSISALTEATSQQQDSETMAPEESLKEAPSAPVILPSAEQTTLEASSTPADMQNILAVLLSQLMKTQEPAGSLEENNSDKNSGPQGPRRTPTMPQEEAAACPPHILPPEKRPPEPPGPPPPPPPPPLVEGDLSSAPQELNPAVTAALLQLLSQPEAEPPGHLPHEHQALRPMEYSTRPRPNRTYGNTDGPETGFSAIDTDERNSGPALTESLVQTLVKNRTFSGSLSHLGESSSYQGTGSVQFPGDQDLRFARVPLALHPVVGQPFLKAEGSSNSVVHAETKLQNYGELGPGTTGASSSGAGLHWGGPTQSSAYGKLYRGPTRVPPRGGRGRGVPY

`C=CC(=O)NCc1ccc(-c2ccc(C(C)C(=O)Nc3cc(C4CC4)[nH]n3)cc2)cn1` (stereo unspecified): the Occ50 in test [1] amounted to 0.23 µM; in test [2], 0.61 µM.

On to `C=CC(=O)NCc1ccc(-c2ccc([C@H](C)C(=O)Nc3cc(C4CC4)[nH]n3)cc2)cn1`, for which the Occ50 in test [1] was 0.022 µM; in test [2], over 2 µM.

Consider `C=CC(=O)NCc1ccc(-c2ccc(C(C)C(=O)Nc3cc(C4CC4)[nH]n3)cn2)cn1` (stereo unspecified), for which, in test [3], the pIC50 was under 5.00.

With `CC(C(=O)Nc1cc(C2CC2)[nH]n1)c1ccc(-c2ccc(NC(=O)/C=C/CN3CCOCC3)cc2)cc1` (stereo in doubt; 12), the pIC50 in test [3] was under 5.00.

The values are drawn from ChEMBL document CHEMBL4739718, “Substituted 5-cyclopropyl-1h-pyrazol-3-yl-amine derivatives as selective cdk12/13 inhibitors” (2020).
